Test results from ChEMBL document CHEMBL1134210, “Synthesis and biological activities of potential metabolites of the non-nucleoside reverse transcriptase inhibitor efavirenz” (Bioorg Med Chem Lett, 2001).

Assays:
[1] = target: Human immunodeficiency virus type 1 reverse transcriptase (Human immunodeficiency virus 1, UniProt Q72547); assay: Inhibitory activity against HIV-1 reverse transcriptase
Nucleic Acid = assay: Inhibitory activity against RNA; type: functional

IC50 [1] | IC90 (Nucleic Acid) | Structure (SMILES)
12500 nM | 1010 nM | O=C1Nc2c(OS(=O)(=O)O)cc(Cl)cc2[C@@](C#CC2CC2)(C(F)(F)F)O1.c1ccncc1
2450 nM | 422 nM | O=C1Nc2cc(O)c(Cl)cc2C(C#CC2CC2)(C(F)(F)F)O1 (stereo not drawn)
2340 nM | 63 nM | O=C1Nc2c(O)cc(Cl)cc2[C@@](C#CC2CC2)(C(F)(F)F)O1
1980 nM | 33 nM | O=C1Nc2ccc(Cl)cc2C(C#CC2(O)CC2)(C(F)(F)F)O1 (stereo not drawn)
– | 1.7 nM | O=C1Nc2ccc(Cl)cc2[C@@](C#CC2CC2)(C(F)(F)F)O1
9490 nM | > 985 nM | O=C1Nc2c(O[C@@H]3O[C@H](C(=O)O)[C@@H](O)[C@H](O)[C@H]3O)cc(Cl)cc2[C@@](C#CC2CC2)(C(F)(F)F)O1
> 12500 nM | > 1510 nM | O=C1Nc2c(O)cc(Cl)cc2C(C#CC2CC2)(C(F)(F)F)O1 (single isomer, unassigned)
